The values that follow are results of earlier work, collected in US5183829A, “Oral liquid compositions of non-steroidal anti-inflammatory drugs” (priority 1991, dated 1993).

The conditions of the series: enteric coated tablet vs aqueous solution.

In the case of `O=C(O)Cc1ccccc1Nc1c(Cl)cccc1Cl` [sodium diclofenac], the oral bioavailability entry is recorded as “more bioavailable orally from an enteric coated tablet than from an aqueous solution”.
